# Several values for one entry are separate records, joined by “and”; a condition that tells them apart may be missing. Equal values may be shown once.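 Where inhibition never reached the appropriate level, the endpoint shown equals the highest concentration tested. Otherwise, values were interpolated linearly from a five-concentration, 48-hour dose response in 96-well plates. Abbreviation: GI50, concentration required for 50% inhibition of growth. TGI is the concentration that stops growth completely.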 Where a SMILES comes first, the peptide text is derived from it. [ ]: non-standard residue; d: D form. 2Nal = N[CH](Cc1ccc2ccccc2c1)C(=O)O
# Experiments:
# Test in all cases: inhibition of tumour cell growth, NCI panel, 48 h
# A498 renal = test system: A498 renal
# UACC-62 melanoma = test system: UACC-62 melanoma
# NCI-H23 lung = test system: NCI-H23 lung
# MDA-MB-231 breast = test system: MDA-MB-231 breast
# TK-10 renal = test system: TK-10 renal
# OVCAR-4 ovarian = test system: OVCAR-4 ovarian
# K-562 leukemia = test system: K-562 leukemia
# OVCAR-5 ovarian = test system: OVCAR-5 ovarian
# SNB-75 CNS = test system: SNB-75 CNS
# ACHN renal = test system: ACHN renal
SMILES,GI50 (A498 renal),TGI (A498 renal),GI50 (UACC-62 melanoma),TGI (UACC-62 melanoma),GI50 (NCI-H23 lung),TGI (NCI-H23 lung),GI50 (MDA-MB-231 breast),TGI (MDA-MB-231 breast),GI50 (TK-10 renal),TGI (TK-10 renal),GI50 (OVCAR-4 ovarian),TGI (OVCAR-4 ovarian),GI50 (K-562 leukemia),TGI (K-562 leukemia),GI50 (OVCAR-5 ovarian),TGI (OVCAR-5 ovarian),GI50 (SNB-75 CNS) [µM],TGI (SNB-75 CNS) [µM],GI50 (ACHN renal),TGI (ACHN renal)
O=C1c2cccc3c(N4CCN(c5ccc6c7c(cccc57)C(=O)N(CCN5CCNCC5)C6=O)CC4)ccc(c23)C(=O)N1CCN1CCNCC1,17.3 µM,36.4 µM,15 µM,30.2 µM,11 µM,26.3 µM,10.4 µM,25.1 µM,14.7 µM,33.4 µM,18.3 µM,42.3 µM,2.78 µM,8.29 µM,15.1 µM,34.1 µM,17.4,33.8,7.23 µM,22.5 µM
O=S(=O)(Nc1ccc(Cl)c(C(F)(F)F)c1)c1ccc(-c2cnc(C3CC3)o2)cc1,0.0814 µM,1.23 µM,0.203 µM,2.2 µM,1.37 µM,6.37 µM,1.23 µM,3.64 µM,1.8 µM,9.58 µM,1.63 µM,9.75 µM,0.117 µM,> 100 µM,1.51 µM,7.24 µM,0.125,1.72,0.789 µM,6.88 µM
N#CC1=C(N)Oc2c(sc3c(F)cccc23)C1c1ccc([N+](=O)[O-])cc1 (stereo unspecified),0.0219 µM,0.691 µM,0.0863 µM,1.33 µM,0.284 µM,1.46 µM,0.215 µM,1.21 µM,0.609 µM,3.12 µM,0.312 µM,1.9 µM,0.0494 µM,1.79 µM,0.552 µM,2.26 µM,0.115,0.445,0.407 µM,2.31 µM
CC1=COC2=C(C)C(=O)C(=O)c3c(C)ccc1c32,,41.8 µM,,11.9 µM,,14.3 µM,,23.6 µM,,> 92.6 µM,,13.5 µM,,> 100 µM,,34.8 µM,,42.6,,29.5 µM
C/C=C(/C)C(=O)OC1C=C(CO)C(=O)C(OC(=O)/C(C)=C\C)C1C(C)C (stereo unspecified),1.55 µM,2.95 µM,0.644 µM,1.98 µM,1.5 µM,3.23 µM,0.751 µM,1.9 µM,1.38 µM,2.79 µM,1.12 µM,2.49 µM,0.401 µM,19.2 µM,0.976 µM,2.5 µM,1.4,2.73,0.541 µM,1.69 µM
C[C@]12CC[C@@H]3c4ccc(O)cc4CC[C@H]3[C@@H]1CC[C@@H]2NS(=O)(=O)c1cccc(Br)c1,1.8 µM,8.45 µM,3.19 µM,12.9 µM,3.89 µM,17 µM,3.88 µM,13.9 µM,3.43 µM,12.1 µM,2.45 µM,9.98 µM,3.59 µM,14.8 µM,4.09 µM,16.3 µM,2.9,13.5,2.91 µM,8.61 µM
O=C(c1cccs1)c1c(C(F)(F)F)n([O-])c2cc(F)c(F)cc2[n+]1=O,1.46 µM,3.79 µM,1.54 µM,3.58 µM,2.26 µM,4.94 µM,1 µM,3.32 µM,1.36 µM,3.99 µM,31.9 µM,50 µM,0.71 µM,2.44 µM,3.57 µM,5.58 µM,,,0.419 µM,1.4 µM
CS(=O)(=O)c1ccc(C(F)(F)F)cc1NC(=O)Nc1cnc(Oc2ccc(-c3cc(Cl)cnc3N)cc2)nc1,1.78 µM,5.09 µM,1.82 µM,4.72 µM,2.56 µM,7.69 µM,1.72 µM,3.79 µM,2.21 µM,6.92 µM,2.9 µM,12.4 µM,2.23 µM,5.51 µM,3.1 µM,15.9 µM,1.11,11.5,1.98 µM,6.32 µM
NC1=C(c2nc(-c3cc4ccccc4oc3=O)cs2)C(c2ccco2)c2c(c3ccccc3oc2=O)O1 (stereo unspecified),66.1 µg/mL,> 150 µg/mL,112 µg/mL,> 150 µg/mL,> 150 µg/mL,> 150 µg/mL,75.7 µg/mL,> 150 µg/mL,46.4 µg/mL,87.6 µg/mL,68.3 µg/mL,> 150 µg/mL,95.9 µg/mL,> 150 µg/mL,> 150 µg/mL,> 150 µg/mL,,,36.3 µg/mL,> 150 µg/mL
Cc1cc(NC(=O)CCc2ccc(N3C(N)=NC(N)=NC3(C)C)cc2)ccc1S(=O)(=O)F,> 23.7 µM,> 100 µM,0.14 µM,> 100 µM,1.76 µM,> 100 µM,> 87.2 µM,> 100 µM,4.94 µM,> 100 µM,12.3 µM,> 100 µM,0.737 µM,> 100 µM,0.468 µM,> 100 µM,0.517,80.1,26.2 µM,> 100 µM
O=[N+]([O-])c1ccc2nc(N/N=C/c3ccc(O)cc3)sc2c1,5.19 µM,27.2 µM,4.46 µM,37 µM,5.22 µM,> 100 µM,6.06 µM,> 100 µM,3.97 µM,29.8 µM,3.92 µM,51.8 µM,2.58 µM,> 100 µM,18.9 µM,> 100 µM,5.16,56.1,4.63 µM,> 100 µM
COc1ccc(/C=N/NC(=O)O)cc1,,> 100 µM,,> 100 µM,,> 100 µM,,> 100 µM,,> 100 µM,,> 100 µM,,> 100 µM,,> 100 µM,,> 100,,> 100 µM
CC(NC(=O)C(N)Cc1ccccc1)C(=O)NC(Cc1ccc(O)cc1)C(=O)NC(Cc1c[nH]c2ccccc12)C(=O)NC(CCCCN)C(=O)NC(C(=O)NC(C)C(=O)NC(Cc1ccc2ccccc2c1)C(N)=O)C(C)C (stereo unspecified) (H-FAYWKVA[2Nal]-NH2; configuration not given here),19.4 µM,> 12.5 µM and 49.4 µM,26.8 µM,> 12.5 µM and 75.7 µM,25.7 µM,> 12.5 µM and 75.4 µM,,> 12.5 µM,,,27.2 µM,> 12.5 µM and 84.3 µM,16.9 µM,> 12.5 µM and 30.5 µM,,> 12.5 µM,,71.8,22.7 µM,> 12.5 µM and 52.1 µM

# From PubChem BioAssay (NCI)
